Legend:
[1] = system: resectable pancreatic cancer; conditions: postoperative gemcitabine versus no gemcitabine; cited from earlier work
[2] = system: DC vaccine-induced T-cell proliferation; conditions: concomitant administration of gemcitabine and the DC vaccine; cited from earlier work
[3] = system: resected pancreatic cancer; conditions: in vivo

Nc1ccn([C@@H]2O[C@H](CO)[C@@H](O)C2(F)F)c(=O)n1 [gemcitabine, 4-amino-1-(2-deoxy-2,2-difluoro-β-D-erythro-pentofuranosyl)pyrimidin-2(1H)-on]
development of recurrent disease after complete resection [1]: significantly delayed
vaccine-induced immune response [2]: significantly impaired
principal adverse event related to gemcitabine ([3]; human, 6 four-week cycles): grade 3/4 neutropenia
serious adverse events considered related to gemcitabine [3]: pulmonary infection and two episodes of fever
